The subject of this assay is db/db mice. Put plainly: Test for Activity of Decreasing Plasma Glucose using db/db Mice. It counts as in vivo. Particulars: female db/db mice, dose of 10 mg/kg, mixed with powdered chow (0.01%), 14 days, difference between db/db and +/+ mouse groups defined as 100%. From the text: Test Example: Test for Activity of Decreasing Plasma Glucose using db/db Mice
1-(Isoquinolin-3-ylmethyl)-2-methyl-6-(1-pentanesulfonyl-carbamoyl)benzimidazole (13)
Five-week-old female mice [C57BL/KsJ-dbm db+/db+, C57BL/KsJ-dbm +m/+m (Jackson Laboratory) were purchased, and were kept for 2 to 3 weeks. Then, these mice were used in the test.
A test compound was mixed with a powdered chow (CE-2, made by Nippon Clea) using a mortar. The mixing ratio was 0.01%. The mixed chow was changed twice a week. The feed amount and the remaining amount were recorded, and the intake was calculated from the difference therebetween.
The female db/db mice were grouped according to the body weight, the plasma glucose and the plasma triglyceride concentrations. […] Plasma glucose, triglyceride, and insulin concentrations were measured on day 0 and day 14 as well as plasma glucose and triglyceride concentrations on day 7. The body weight was measured on day 0, day 7 and day 14. […]
The plasma glucose was measured by a glucose oxidase method (Glucose CII-Test Wako made by Wako Pure Chemical Industries, Ltd.) using from 10 to 15 μl of plasma. The plasma triglyceride concentration was measured by a GPO-p-chlorophenol method (Triglyceride G-Test Wako made by Wako Pure Chemical Industries, Ltd.) or a GPO-DAOS method (Triglyceride E-Test Wako) using from 10 to 15 μl of plasma. […]

Turning to `CCCCCS(=O)(=O)NC(=O)c1ccc2nc(C)n(Cc3cc4ccccc4cn3)c2c1` [Compound 13, 1-(Isoquinolin-3-ylmethyl)-2-methyl-6-(1-pentane-sulfonylcarbamoyl)benzimidazole], the “plasma glucose decreasing activity” value amounted to 44%. Under “plasma triglyceride”, this compound showed a TG concentration-decreasing activity of 77%.

The values above are taken from US6420409B1, “Benzimidazole derivatives” (Fujisawa Pharmaceutical Co., Ltd., priority 1997, dated 2002).
